Test results as given in ChEMBL document CHEMBL4507256 (2021).

Assays:
[1] = target: Melatonin receptor type 1A (Homo sapiens) (UniProt P48039); assay: MT1 (h) CEREP ligand profiling; conditions: Compound concentration 10.0 uM
[2] = target: Thromboxane A2 receptor (Homo sapiens) (UniProt P21731); assay: TXA2/PGH2 CEREP ligand profiling; conditions: Compound concentration 10.0 uM
[3] = target: Neuropeptide Y receptor type 2 (Homo sapiens) (UniProt P49146); assay: Y2 (h) CEREP ligand profiling; conditions: Compound concentration 10.0 uM
Sequence of Neuropeptide Y receptor type 2 (Homo sapiens) (P49146 whole entry): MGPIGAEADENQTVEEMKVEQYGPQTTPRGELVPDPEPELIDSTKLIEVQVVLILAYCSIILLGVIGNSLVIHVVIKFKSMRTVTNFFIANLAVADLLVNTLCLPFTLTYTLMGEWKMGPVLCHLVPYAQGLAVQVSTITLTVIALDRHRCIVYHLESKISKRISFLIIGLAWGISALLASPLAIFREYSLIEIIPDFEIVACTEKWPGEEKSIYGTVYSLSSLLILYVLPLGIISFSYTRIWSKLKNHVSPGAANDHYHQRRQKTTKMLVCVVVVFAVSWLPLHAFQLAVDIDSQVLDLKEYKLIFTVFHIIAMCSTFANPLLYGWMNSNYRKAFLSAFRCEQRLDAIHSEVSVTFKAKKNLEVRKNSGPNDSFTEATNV

[4] = target: Histamine H2 receptor (Homo sapiens) (UniProt P25021); conditions: Compound concentration 10.0 uM
Sequence of Histamine H2 receptor (Homo sapiens) (P25021 whole entry): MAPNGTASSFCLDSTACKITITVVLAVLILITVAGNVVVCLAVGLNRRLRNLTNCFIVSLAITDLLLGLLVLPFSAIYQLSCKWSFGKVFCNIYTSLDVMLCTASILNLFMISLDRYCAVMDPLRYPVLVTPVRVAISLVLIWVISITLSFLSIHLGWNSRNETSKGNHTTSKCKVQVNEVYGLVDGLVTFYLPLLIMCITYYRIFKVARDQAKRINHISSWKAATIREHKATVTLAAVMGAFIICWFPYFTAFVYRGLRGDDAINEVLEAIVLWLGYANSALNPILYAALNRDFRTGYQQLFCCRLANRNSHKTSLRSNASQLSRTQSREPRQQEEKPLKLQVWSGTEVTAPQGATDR

[5] = target: Gastrin/cholecystokinin type B receptor (Homo sapiens) (UniProt P32239); assay: CCKB (h) CEREP ligand profiling; conditions: Compound concentration 10.0 uM
[6] = target: Translocator protein (Rattus norvegicus) (UniProt P16257); assay: BZD-peripheral CEREP ligand profiling; conditions: Compound concentration 10.0 uM
Sequence of Translocator protein (Rattus norvegicus) (P16257 whole entry, looked up): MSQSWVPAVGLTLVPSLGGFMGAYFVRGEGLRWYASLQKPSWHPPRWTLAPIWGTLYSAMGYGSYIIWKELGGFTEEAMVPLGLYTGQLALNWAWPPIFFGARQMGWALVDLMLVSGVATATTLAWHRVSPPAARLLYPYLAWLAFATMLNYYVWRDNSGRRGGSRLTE

[7] = target: Beta-2 adrenergic receptor (Homo sapiens) (UniProt P07550); assay: beta 2 CEREP ligand profiling; conditions: Compound concentration 10.0 uM
Sequence of Beta-2 adrenergic receptor (Homo sapiens) (P07550 whole entry, looked up): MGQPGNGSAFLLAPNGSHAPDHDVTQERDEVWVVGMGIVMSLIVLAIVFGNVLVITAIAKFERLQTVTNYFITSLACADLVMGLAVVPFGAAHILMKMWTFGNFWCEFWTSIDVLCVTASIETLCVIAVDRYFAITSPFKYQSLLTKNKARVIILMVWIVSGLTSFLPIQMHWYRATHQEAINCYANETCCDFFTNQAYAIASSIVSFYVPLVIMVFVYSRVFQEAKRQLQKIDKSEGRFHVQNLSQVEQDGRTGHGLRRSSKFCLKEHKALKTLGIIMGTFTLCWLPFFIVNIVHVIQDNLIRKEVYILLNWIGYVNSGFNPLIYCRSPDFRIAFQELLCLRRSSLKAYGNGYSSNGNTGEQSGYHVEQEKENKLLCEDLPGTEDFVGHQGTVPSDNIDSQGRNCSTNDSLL

[8] = target: T1, D(4) dopamine receptor (Homo sapiens) (UniProt P21917); assay: D4.4 (h) CEREP ligand profiling; conditions: Compound concentration 10.0 uM
T1 sequence (whole entry): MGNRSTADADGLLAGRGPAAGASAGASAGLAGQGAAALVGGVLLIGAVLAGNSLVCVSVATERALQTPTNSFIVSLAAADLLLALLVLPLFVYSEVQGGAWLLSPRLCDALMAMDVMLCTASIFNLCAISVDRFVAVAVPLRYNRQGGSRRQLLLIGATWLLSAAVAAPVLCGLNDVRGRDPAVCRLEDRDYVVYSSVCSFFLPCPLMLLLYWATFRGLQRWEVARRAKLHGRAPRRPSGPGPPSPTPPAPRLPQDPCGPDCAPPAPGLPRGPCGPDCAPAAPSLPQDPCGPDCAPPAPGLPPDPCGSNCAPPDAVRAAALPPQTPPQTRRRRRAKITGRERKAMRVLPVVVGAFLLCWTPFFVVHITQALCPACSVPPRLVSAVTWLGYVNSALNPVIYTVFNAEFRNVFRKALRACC

[9] = target: T2, 5-hydroxytryptamine receptor 3A (Homo sapiens) (UniProt P46098); assay: 5-HT3 (h) CEREP ligand profiling; conditions: Compound concentration 10.0 uM
T2 sequence (whole entry): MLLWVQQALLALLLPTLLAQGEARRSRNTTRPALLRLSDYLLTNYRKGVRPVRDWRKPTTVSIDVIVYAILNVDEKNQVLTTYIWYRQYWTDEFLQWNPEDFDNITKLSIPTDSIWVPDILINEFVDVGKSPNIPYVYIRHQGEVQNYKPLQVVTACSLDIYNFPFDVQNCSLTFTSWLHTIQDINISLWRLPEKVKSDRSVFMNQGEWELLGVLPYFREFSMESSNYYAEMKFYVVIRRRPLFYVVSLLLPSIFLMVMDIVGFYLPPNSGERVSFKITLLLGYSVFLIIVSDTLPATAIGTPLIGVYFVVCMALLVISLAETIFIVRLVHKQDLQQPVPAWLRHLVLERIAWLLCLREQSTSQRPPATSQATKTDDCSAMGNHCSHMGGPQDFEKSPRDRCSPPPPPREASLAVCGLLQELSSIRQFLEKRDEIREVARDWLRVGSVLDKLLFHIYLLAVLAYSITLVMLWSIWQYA

[10] = target: T3, Muscarinic acetylcholine receptor M2 (Homo sapiens) (UniProt P08172); assay: M2 (h) CEREP ligand profiling; conditions: Compound concentration 10.0 uM
T3 sequence (whole entry): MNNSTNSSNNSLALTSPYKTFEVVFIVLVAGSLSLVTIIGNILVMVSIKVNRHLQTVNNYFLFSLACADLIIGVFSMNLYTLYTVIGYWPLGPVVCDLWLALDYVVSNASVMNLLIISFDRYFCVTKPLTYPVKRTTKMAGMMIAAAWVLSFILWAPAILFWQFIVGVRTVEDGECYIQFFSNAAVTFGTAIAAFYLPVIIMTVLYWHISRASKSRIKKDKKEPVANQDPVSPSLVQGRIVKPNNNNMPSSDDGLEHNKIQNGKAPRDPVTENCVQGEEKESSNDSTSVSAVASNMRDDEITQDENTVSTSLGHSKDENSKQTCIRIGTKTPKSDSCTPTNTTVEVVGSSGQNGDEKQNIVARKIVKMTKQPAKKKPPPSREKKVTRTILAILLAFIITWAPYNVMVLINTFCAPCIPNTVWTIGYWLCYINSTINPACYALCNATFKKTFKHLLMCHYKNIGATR

[11] = target: Endothelin-1 receptor (Homo sapiens) (UniProt P25101); assay: ETA (h) CEREP ligand profiling; conditions: Compound concentration 10.0 uM
Sequence of Endothelin-1 receptor (Homo sapiens) (P25101 whole entry): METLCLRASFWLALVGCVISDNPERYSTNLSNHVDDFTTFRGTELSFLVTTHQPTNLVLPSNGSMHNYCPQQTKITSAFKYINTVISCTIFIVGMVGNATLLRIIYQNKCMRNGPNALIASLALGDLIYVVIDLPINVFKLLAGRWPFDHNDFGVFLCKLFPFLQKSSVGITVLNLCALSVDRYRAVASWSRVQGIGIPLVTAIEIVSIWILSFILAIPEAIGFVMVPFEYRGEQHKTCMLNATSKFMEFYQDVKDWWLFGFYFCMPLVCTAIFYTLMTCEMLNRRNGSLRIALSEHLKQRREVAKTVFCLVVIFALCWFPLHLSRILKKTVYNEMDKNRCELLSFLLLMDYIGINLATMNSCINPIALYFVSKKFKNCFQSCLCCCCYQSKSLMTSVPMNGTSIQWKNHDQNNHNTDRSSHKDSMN

[12] = target: Sigma non-opioid intracellular receptor 1 (Homo sapiens, UniProt Q99720); assay: sigma CEREP ligand profiling; conditions: Compound concentration 10.0 uM
Sequence of Sigma non-opioid intracellular receptor 1 (Q99720 whole entry): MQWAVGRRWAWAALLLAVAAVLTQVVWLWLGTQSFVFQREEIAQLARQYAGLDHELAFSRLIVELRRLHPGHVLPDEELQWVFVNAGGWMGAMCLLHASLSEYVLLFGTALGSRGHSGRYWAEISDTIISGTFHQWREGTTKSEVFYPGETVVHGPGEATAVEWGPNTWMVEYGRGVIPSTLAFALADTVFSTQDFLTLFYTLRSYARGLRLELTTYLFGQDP

[13] = target: Ca2+ channel (voltage-gated L-type calcium channel family) (Homo sapiens, UniProt O60840+Q01668+Q13698+Q13936); assay: Ca2+ channel CEREP ligand profiling; assay type: protein assay; conditions: probe penylalkylamine (ligand); compound concentration 10 uM
[14] = target: Na+ channel (sodium channel alpha subunit family) (Homo sapiens, UniProt P35498+P35499+Q01118+Q14524+Q15858+Q99250+Q9NY46+Q9UI33+Q9UQD0+Q9Y5Y9); assay: Na+ channel CEREP ligand profiling; assay type: protein assay; conditions: probe veratridine (ligand); compound concentration 10 uM
[15] = target: C-X-C chemokine receptor type 2 (Homo sapiens) (UniProt P25025); assay: CXCR2 (h) CEREP ligand profiling; conditions: Compound concentration 10.0 uM
Sequence of C-X-C chemokine receptor type 2 (Homo sapiens) (P25025 whole entry): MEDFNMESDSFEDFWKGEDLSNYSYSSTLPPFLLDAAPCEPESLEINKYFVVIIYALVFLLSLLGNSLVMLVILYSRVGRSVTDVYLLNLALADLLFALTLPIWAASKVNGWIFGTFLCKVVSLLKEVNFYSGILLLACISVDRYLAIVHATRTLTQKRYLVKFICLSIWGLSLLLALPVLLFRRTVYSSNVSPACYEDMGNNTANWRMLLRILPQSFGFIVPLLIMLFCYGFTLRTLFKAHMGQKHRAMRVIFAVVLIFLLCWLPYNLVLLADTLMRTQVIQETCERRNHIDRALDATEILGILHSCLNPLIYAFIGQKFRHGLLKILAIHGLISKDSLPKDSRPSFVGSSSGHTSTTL

[16] = target: Neuropeptide Y receptor type 1 (Homo sapiens) (UniProt P25929); assay: Y1 (h) CEREP ligand profiling; conditions: Compound concentration 10.0 uM
Sequence of Neuropeptide Y receptor type 1 (Homo sapiens) (P25929 whole entry): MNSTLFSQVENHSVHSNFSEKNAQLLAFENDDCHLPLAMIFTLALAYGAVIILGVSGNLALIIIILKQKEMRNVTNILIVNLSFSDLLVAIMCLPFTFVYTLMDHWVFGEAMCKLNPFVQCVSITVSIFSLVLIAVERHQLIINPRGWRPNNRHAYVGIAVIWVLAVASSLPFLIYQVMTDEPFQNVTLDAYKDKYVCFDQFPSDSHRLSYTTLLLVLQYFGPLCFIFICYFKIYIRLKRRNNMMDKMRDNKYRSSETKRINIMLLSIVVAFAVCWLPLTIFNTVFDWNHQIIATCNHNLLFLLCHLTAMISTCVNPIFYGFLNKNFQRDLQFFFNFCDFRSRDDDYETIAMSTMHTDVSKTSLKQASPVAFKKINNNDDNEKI

[17] = target: Adenosine receptor A3 (Homo sapiens) (UniProt P0DMS8); assay: A3 CEREP ligand profiling; conditions: Compound concentration 10.0 uM
[18] = target: 5-hydroxytryptamine receptor 6 (Homo sapiens) (UniProt P50406); assay: 5-HT6 (h) CEREP ligand profiling; conditions: Compound concentration 10.0 uM
Sequence of 5-hydroxytryptamine receptor 6 (Homo sapiens) (P50406 whole entry): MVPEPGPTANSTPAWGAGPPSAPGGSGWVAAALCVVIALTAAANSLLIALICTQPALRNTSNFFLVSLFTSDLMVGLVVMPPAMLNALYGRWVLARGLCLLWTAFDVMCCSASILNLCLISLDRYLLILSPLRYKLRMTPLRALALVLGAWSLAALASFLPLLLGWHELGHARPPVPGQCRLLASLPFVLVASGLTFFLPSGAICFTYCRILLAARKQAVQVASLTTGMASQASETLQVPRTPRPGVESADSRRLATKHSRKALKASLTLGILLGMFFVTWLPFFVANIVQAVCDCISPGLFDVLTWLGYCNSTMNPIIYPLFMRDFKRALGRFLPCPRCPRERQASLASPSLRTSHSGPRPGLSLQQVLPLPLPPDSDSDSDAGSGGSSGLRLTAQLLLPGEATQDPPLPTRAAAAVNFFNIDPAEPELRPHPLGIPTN

[19] = target: D(2) dopamine receptor (Homo sapiens) (UniProt P14416); assay: D2S (h) CEREP ligand profiling; conditions: Compound concentration 10.0 uM
Sequence of D(2) dopamine receptor (Homo sapiens) (P14416 whole entry): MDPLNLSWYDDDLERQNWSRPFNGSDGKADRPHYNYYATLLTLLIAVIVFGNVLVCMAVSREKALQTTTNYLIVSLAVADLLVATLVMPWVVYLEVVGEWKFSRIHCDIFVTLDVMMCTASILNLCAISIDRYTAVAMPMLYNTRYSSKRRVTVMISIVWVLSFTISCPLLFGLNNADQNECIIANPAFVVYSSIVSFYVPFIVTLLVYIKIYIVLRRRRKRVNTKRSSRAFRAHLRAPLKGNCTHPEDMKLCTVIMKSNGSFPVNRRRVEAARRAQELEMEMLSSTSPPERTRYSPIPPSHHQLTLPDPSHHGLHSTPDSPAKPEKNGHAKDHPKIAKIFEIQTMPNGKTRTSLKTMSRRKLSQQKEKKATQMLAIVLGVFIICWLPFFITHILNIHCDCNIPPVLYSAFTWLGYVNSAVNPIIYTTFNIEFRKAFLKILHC

[20] = target: T4, Muscarinic acetylcholine receptor M4 (Homo sapiens) (UniProt P08173); assay: M4 (h) CEREP ligand profiling; conditions: Compound concentration 10.0 uM
T4 sequence (whole entry): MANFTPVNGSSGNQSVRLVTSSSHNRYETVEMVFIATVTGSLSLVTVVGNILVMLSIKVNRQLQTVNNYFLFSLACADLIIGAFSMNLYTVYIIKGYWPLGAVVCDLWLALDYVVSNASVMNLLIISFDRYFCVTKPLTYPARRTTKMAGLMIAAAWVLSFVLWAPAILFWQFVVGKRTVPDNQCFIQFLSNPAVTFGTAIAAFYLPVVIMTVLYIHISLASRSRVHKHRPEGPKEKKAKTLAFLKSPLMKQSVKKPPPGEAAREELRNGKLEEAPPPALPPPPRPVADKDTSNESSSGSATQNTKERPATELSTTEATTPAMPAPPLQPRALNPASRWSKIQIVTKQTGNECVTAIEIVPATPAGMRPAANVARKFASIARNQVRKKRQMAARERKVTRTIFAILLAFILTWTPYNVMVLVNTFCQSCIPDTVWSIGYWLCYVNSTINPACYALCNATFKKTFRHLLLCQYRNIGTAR

[21] = target: Dual specificity mitogen-activated protein kinase kinase 6 (Homo sapiens) (UniProt P52564); conditions: Compound concentration 1000.0 nM
Sequence of Dual specificity mitogen-activated protein kinase kinase 6 (Homo sapiens) (P52564 whole entry): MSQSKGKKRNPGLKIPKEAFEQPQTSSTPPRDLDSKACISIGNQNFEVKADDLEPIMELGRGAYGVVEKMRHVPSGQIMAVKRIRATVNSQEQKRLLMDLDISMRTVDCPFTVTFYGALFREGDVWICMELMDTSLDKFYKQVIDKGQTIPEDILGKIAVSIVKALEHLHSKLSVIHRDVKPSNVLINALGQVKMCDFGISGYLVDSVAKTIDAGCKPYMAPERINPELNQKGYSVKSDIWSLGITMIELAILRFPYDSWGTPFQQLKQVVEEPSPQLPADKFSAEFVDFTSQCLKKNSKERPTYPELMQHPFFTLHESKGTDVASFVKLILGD

Sequence of Melatonin receptor type 1A (Homo sapiens) (P48039 whole entry): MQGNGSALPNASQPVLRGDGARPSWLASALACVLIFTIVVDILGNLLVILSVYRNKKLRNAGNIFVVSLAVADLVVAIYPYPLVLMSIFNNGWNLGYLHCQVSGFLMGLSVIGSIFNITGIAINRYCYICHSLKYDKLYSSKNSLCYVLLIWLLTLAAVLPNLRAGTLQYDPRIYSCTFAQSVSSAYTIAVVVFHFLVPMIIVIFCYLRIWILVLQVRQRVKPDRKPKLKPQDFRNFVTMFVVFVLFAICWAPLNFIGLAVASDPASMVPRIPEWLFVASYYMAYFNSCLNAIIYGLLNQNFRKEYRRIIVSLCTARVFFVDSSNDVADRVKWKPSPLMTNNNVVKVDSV
Sequence of Thromboxane A2 receptor (Homo sapiens) (P21731 whole entry): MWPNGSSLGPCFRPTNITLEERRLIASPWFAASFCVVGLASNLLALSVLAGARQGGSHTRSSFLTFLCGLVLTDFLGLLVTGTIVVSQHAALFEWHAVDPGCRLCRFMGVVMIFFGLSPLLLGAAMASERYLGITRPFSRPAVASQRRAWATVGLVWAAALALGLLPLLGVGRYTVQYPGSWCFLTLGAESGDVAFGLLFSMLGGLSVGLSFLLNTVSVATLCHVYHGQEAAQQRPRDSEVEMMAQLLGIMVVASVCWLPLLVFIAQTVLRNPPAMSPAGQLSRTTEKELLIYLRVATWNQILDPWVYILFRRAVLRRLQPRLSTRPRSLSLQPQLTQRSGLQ

CCC(=N\O)/C(C)=C/c1ccc(F)cc1 [A-079]
3% (not active): inhibition at 10 µM [13]
inactive: inhibition [1] 31% | inhibition [2] 6% | inhibition [3] 13% | inhibition [4] 0.46% | inhibition [5] 7% | inhibition [6] 6% | inhibition [7] -3% | inhibition [8] 4% | inhibition [9] 0% | inhibition [10] 13% | inhibition [11] 5% | inhibition [12] -2% | inhibition [15] -1% | inhibition [16] 0% | inhibition [17] 27% | inhibition [18] 0% | inhibition [19] 4% | inhibition [20] 5%
17% (not active): inhibition at 10 µM [14]

CCC(=N\O)/C(C)=C/c1ccc(F)c(C)c1 [A-226]
inactive: residual activity [21] 100%
